Results taken from patent US20250034117A1, “Deuterated 1,3 Dihydro -2H-indole-2-one derivatives” (HMNC Holding GmbH, priority 2023, published 2025).
Like-named read-outs stand apart in the source and are kept apart here.

Experiments:
in vitro = details: human, microsomes, pH 7.4
Procedure: (§1) Liver microsomal stability assays are conducted with human liver microsomes at a final liver microsomal protein concentration of 0.1007 mg per ml. Test compounds are prepared as solutions in 0.01% DMSO, 0.25% acetonitril and 0.25% methanol. The test compound is added to the reaction mixture at a final concentration of 0.1 μM and pre-incubated with pooled liver microsomes in phosphate buffer (pH 7.4) for 10 min on plate shaker in a 37° C. incubator. The reaction is initiated by adding a NADPH-generating system and incubated for 0, 15, 30, 45, and 60 min. The reaction is stopped by transferring the incubation mixture to Stop Buffer solvent (acetonitrile/methanol). Samples are then mixed and centrifuged. The supernatant samples are loaded onto the LC/MS/MS for analysis. Samples are analyzed by LC/MS/MS using multiple reaction monitoring (MRM). The UPLC system consists of a binary LC pump with autosampler, a C-18 column, and a gradient.
(§2) Four reference compounds are tested in each assay (Propranolol, imipramine, verapamil and terfenadine).
(§3) For data analysis, peak areas corresponding to the test compound are recorded. The compound remaining is calculated by comparing the peak area at each time point to time zero. The half-life is calculated from the slope of the initial linear range of the logarithmic curve of compound remaining (%) vs. time, assuming first order kinetics.

V2 = V2 (Homo sapiens (Human), UniProt P30518); assay: Activity assay in the agonistic mode, V2; format: biochemical
[1] = human, microsomes, 0.1 μM, pH 7.4
Procedure: as §1, §2, §3

V1a = V1a (Homo sapiens (Human), UniProt P37288); assay: Activity assay in the agonistic mode, V1a; format: biochemical
OT receptors = OT receptors (Homo sapiens (Human), UniProt P30559); assay: Activity assay in the agonistic mode, OT receptors; format: biochemical
[2] = In vitro human liver microsomal (HLM) stability assay; details: for Half-life: human liver microsomes, first order kinetics; for % Compound Remaining (Mean): 0.1 μM compound, human liver microsomes 0.1007 mg/ml
Procedure: as §1, §2, §3

[3] = 10 mg/kg p.o.; cited from earlier work

Chain of V2 (P30518 whole entry): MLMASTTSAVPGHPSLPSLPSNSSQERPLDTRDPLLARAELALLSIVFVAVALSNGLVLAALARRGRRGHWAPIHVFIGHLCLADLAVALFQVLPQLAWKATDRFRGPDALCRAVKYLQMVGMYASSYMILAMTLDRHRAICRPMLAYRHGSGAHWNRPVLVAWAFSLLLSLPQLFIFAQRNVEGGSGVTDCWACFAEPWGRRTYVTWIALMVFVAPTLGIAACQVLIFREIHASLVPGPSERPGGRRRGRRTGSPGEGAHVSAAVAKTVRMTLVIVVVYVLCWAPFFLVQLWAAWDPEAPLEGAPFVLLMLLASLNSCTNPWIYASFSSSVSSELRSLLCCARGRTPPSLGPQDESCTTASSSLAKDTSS
Chain of OT receptors (P30559 whole entry): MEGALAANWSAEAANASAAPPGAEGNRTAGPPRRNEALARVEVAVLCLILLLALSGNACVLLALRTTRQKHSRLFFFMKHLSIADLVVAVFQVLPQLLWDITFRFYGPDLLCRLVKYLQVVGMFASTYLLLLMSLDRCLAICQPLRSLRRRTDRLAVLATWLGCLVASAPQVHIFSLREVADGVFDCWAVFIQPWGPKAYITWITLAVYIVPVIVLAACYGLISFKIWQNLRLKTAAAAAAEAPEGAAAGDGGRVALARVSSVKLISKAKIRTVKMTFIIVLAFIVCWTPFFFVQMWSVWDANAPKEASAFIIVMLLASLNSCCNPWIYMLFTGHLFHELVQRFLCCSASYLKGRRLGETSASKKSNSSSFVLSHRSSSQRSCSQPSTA
Chain of V1a (P37288 whole entry): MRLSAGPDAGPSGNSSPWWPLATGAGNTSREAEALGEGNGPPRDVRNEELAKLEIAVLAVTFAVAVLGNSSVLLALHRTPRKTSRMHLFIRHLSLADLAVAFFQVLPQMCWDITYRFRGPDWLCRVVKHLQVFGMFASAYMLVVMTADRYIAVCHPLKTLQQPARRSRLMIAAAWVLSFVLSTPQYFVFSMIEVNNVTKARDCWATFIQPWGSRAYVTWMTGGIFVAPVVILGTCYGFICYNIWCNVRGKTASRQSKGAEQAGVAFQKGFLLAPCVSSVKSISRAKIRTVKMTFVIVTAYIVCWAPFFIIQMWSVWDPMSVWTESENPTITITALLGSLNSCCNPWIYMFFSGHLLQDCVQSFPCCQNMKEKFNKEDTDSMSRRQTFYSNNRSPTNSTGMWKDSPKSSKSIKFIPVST

| SMILES | half-life at 0.1 μM (in vitro) [min] | activity in the agonistic mode in comparison to undeuterated nelivaptan (V2) | % Compound Remaining (Mean) ([1]; 0 h) [%] | % Compound Remaining (Mean) ([1]; 0.25 h) [%] | % Compound Remaining (Mean) ([1]; 0.5 h) [%] | % Compound Remaining (Mean) ([1]; 0.75 h) [%] | % Compound Remaining (Mean) ([1]; 1 h) [%] | activity in the agonistic mode in comparison to undeuterated nelivaptan (V1a) | activity in the agonistic mode in comparison to undeuterated nelivaptan (OT receptors) | Half-life [2] [min] | % Compound Remaining (Mean) ([2]; incubation 0 min) [%] | % Compound Remaining (Mean) ([2]; incubation 15 min) [%] | % Compound Remaining (Mean) ([2]; incubation 30 min) [%] | % Compound Remaining (Mean) ([2]; incubation 45 min) [%] | % Compound Remaining (Mean) ([2]; incubation 60 min) [%] | duration of action [3] [h] |
| --- | --- | --- | --- | --- | --- | --- | --- | --- | --- | --- | --- | --- | --- | --- | --- | --- |
| [2H]C([2H])([2H])Oc1ccccc1[C@@]1(N2C[C@H](O)C[C@H]2C(=O)N(C)C)C(=O)N(S(=O)(=O)c2ccc(OC)cc2OC)c2ccc(Cl)cc21 [Example 2, (2S,4R)1-[(3R)-5-chloro-1-[(2,4-dimethoxyphenyl)sulfonyl]-2,3-dihydro-3-(2-methoxy-d3-phenyl)-2-oxo-1H-indol-3-yl]-4-hydroxy-N,N-dimethyl-2-pyrrolidinecarboxamide] | 4.1 | no significant difference | 100.0 | 7.7 | 0.4 | 0.1 | 0.02 | no significant difference | no significant difference |  |  |  |  |  |  |  |
| [2H]C([2H])([2H])Oc1ccc(S(=O)(=O)N2C(=O)[C@@](c3ccccc3OC([2H])([2H])[2H])(N3C[C@H](O)C[C@H]3C(=O)N(C([2H])([2H])[2H])C([2H])([2H])[2H])c3cc(Cl)ccc32)c(OC([2H])([2H])[2H])c1 [Example 3, (2S,4R)1-[(3R)-5-chloro-1-[(2,4-dimeth-d6-oxyphenyl)sulfonyl]-2,3-dihydro-3-(2-methoxy-d3-phenyl)-2-oxo-1H-indol-3-yl]-4-hydroxy-N,N-dimethyl-d6-2-pyrrolidinecarboxamide] |  | no significant difference |  |  |  |  |  | no significant difference | no significant difference | 6.2 | 100 | 5.40 | 0.39 | 0.15 | 0.13 |  |
| COc1ccc(S(=O)(=O)N2C(=O)[C@@](c3ccccc3OC)(N3C[C@H](O)C[C@H]3C(=O)N(C)C)c3cc(Cl)ccc32)c(OC)c1 [Nelivaptan, (2S,4R)-1-[(3R)-5-chloro-1-(2,4-dimethoxyphenyl)sulfonyl-3-(2-methoxyphenyl)-2-oxoindol-3-yl]-4-hydroxy-N,N-dimethylpyrrolidine-2-carboxamide, reference compound] | 3.2 |  | 100.0 | 3.8 | 0.4 | 0.1 | 0.03 |  |  |  |  |  |  |  |  | > 4 |
| [2H]C([2H])([2H])N(C(=O)[C@@H]1C[C@@H](O)CN1[C@]1(c2ccccc2OC)C(=O)N(S(=O)(=O)c2ccc(OC)cc2OC)c2ccc(Cl)cc21)C([2H])([2H])[2H] [Example 1, (2S,4R)1-[(3R)-5-chloro-1-[(2,4-dimethoxyphenyl)sulfonyl]-2,3-dihydro-3-(2-methoxyphenyl)-2-oxo-1H-indol-3-yl]-4-hydroxy-N,N-dimethyl-d6-2-pyrrolidinecarboxamide] |  | no significant difference |  |  |  |  |  | no significant difference | no significant difference | 4.7 | 100.0 | 14.3 | 1.2 | 0.1 | 0.03 |  |
